Experiments:
[1] = after taken, cited from earlier work
[2] = tested on: healthy male Kunming mice; experiment: Impact on liver damage in mice: serum AST and ALT activity after gavage; assay type: in vivo; settings: gavage 0.5 g/kg, 4 d at intervals of 24 h, mean ± spread, 10 mice per group
Protocol: 1. Materials: healthy male Kunming mice (weight: 20-22 g)
Divide 50 mice into 5 Groups: Control Group, Model Group, Embodiment Group 1, Embodiment Group 2 and Embodiment Group 3; 10 mice for each group. The mice are fed freely two days and fasted 16 h before the experiment. Experimental Treatment: the mice respectively of Control Group, Model Group, Embodiment Group 1, Embodiment Group 2 and Embodiment Group 3 are separately given normal saline, acetaminophen solution (0.5 g/kg), tablets (0.5 g/kg) made in Embodiment 1, oral solution (0.5 g/kg) made in Embodiment 2, and granules made in Embodiment 3 by gavage. The mice are treated continuously 4 d at intervals of 24 h. The mice of control group are given 1% sodium carboxymethylcellulose (0.15 g/kg) by gavage 1 h after last treatment and sacrificed by cervical dislocation after 24 h.
Preparation of Blood Serum: take blood from mouse carotid artery, stand the blood, then make it centrifuged at 3,000 r/min for 15 min to separate out the serum, and put the serum in refrigerator (−20° C.) for storage.
Measuring Indicator and Method: take the prepared serum on Sigma95308 automatic biochemistry analyzer to determine the activity of aspartate transaminase (AST/GOT) and alanine aminotransferase (ALT/GPT).
Impact of Embodiments on Liver Damage

CC(=O)Nc1ccc(O)cc1 [Model Group, Acetaminophen]
Share combined with glucuronide ([1]; liver metabolism): 60%
Share combined with sulfuric acid ([1]; liver metabolism): 30%
Share metabolized by liver cytochrome P450 oxidase system to NAPQI [1]: 4%-5
Share of acetaminophen metabolized by the liver [1]: 90%
ALT (alanine aminotransferase, ALT/GPT) activity in serum [2]: 87.8 ± 9.5 IU · L^−1
AST (aspartate transaminase, AST/GOT) activity in serum [2]: 245.6 ± 18.3 IU · L^−1
